Calls of active or inactive are those of the source.
Columns and labels:
Mus musculus [1] = experiment: Analgesic activity in po dosed mouse assessed as inhibition of acetic acid-induced writhing administered 30 mins prior to acetic acid challenge measured after 5 mins for 20 mins; assay type: functional
Canis familiaris [2] = experiment: Antianxiety activity in dog assessed as decrease in reactivity and ataxia at 10 mg/kg, po administered as single dose measured every 15 mins for 24 hrs; assay type: functional, organism-based; design: dose 10 mg/kg; details: Canis lupus familiaris
Mus musculus [3] = experiment: Antidepressant activity in mouse assessed as potentiation of dopa-induced motor responses at 5 mg/kg, po pretreated with compound followed by dopa challenge for 4 hrs; assay type: functional, organism-based; design: dose 5 mg/kg
Mus musculus [4] = experiment: Anticonvulsant activity in mouse assessed as protection against audiogenic seizure at 30 mg/kg, po administered for 1 hr prior to testing relative to control; assay type: functional
Felis catus [5] = experiment: Sedative-hypnotic activity in cat assessed as increase in total sleep time at 0.5 mg/kg, po administered with diet for 15 to 20 mins measured for 14 hrs; assay type: functional
Canis familiaris [6] = experiment: Antianxiety activity in dog assessed as decrease in reactivity and ataxia at 1 mg/kg, po administered as single dose measured every 15 mins for 24 hrs; assay type: functional, organism-based; design: dose 1 mg/kg; details: Canis lupus familiaris
Mus musculus [7] = experiment: Antianxiety activity in albino BALB/cJ mouse assessed as reduction of footshock-induced fighting behavior at 10 mg/kg, po after 90 mins relative to control; assay type: functional; design: scale not given: the % may be the effect or the level left
[8] = Acute toxicity in po dosed Swiss-Webster mouse assessed as mortality measured for 7 days; assay type: organism-based; details: in vivo
Mus musculus [9] = experiment: Analgesic activity in po dosed mouse by hot-plate test; assay type: functional
Mus musculus [10] = experiment: Anticonvulsant activity in mouse assessed as protection against audiogenic seizure at 10 mg/kg, po administered for 1 hr prior to testing relative to control; assay type: functional
Felis catus [11] = experiment: Sedative-hypnotic activity in cat assessed as increase in total sleep time at 2 mg/kg, po administered with diet for 15 to 20 mins measured for 14 hrs; assay type: functional
Canis familiaris [12] = experiment: Antianxiety activity in dog assessed as decrease in reactivity at 1 mg/kg, po administered as single dose measured every 15 mins for 24 hrs; assay type: functional, organism-based; design: dose 1 mg/kg; details: Canis lupus familiaris
Felis catus [13] = experiment: Sedative-hypnotic activity in cat assessed as increase in total sleep time at 0.1 mg/kg, po administered with diet for 15 to 20 mins measured for 14 hrs; assay type: functional
Canis familiaris [14] = experiment: Antianxiety activity in dog assessed as decrease in reactivity and ataxia at 0.1 mg/kg, po administered as single dose measured every 15 mins for 24 hrs; assay type: functional, organism-based; design: dose 0.1 mg/kg; details: Canis lupus familiaris
Felis catus [15] = experiment: Sedative-hypnotic activity in cat assessed as increase in total sleep time at 0.25 mg/kg, po administered with diet for 15 to 20 mins measured for 14 hrs; assay type: functional
Rattus norvegicus = experiment: Analgesic activity in po dosed Sprague-Dawley rat assessed as increase in pain threshold measured at 15 to 90 mins by tail-flick test; assay type: functional
Felis catus [16] = experiment: Sedative-hypnotic activity in cat assessed as increase in total sleep time at 1 mg/kg, po administered with diet for 15 to 20 mins measured for 14 hrs; assay type: functional
Canis familiaris [17] = experiment: Antianxiety activity in dog assessed as decrease in reactivity at 0.1 mg/kg, po administered as single dose measured every 15 mins for 24 hrs; assay type: functional, organism-based; design: dose 0.1 mg/kg; details: Canis lupus familiaris

SMILES	ED50 (Mus musculus [1]) [mg/kg]	Activity (Canis familiaris [2])	Activity (Mus musculus [3])	Activity (Mus musculus [4]) [%]	Time (Felis catus [5]) [min]	Activity (Canis familiaris [6])	Activity (Mus musculus [7]) [%]	LD50 at 168 h [8] [mg/kg]	ED50 (Mus musculus [9]) [mg/kg]	Activity (Mus musculus [10])	Time (Felis catus [11]) [min]	Activity (Canis familiaris [12])	Time (Felis catus [13]) [min]	Activity (Canis familiaris [14])	Time (Felis catus [15]) [min]	ED50 (Rattus norvegicus) [mg/kg]	Time (Felis catus [16]) [min]	Activity (Canis familiaris [17])
CCCCCC(C)C(C)c1cc(O)c2c(c1)OC(C)(C)C1=C2C(C)CCC1 (stereo not given)	10.5	Active	Active	33	54	Active	33	> 500	25	–	–	–	–	–	–	–	–	–
CCCCCC(C)C(C)c1cc(O)c2c(c1)OC(C)(C)C1=C2CC(C)CC1 (stereo not given)	19.6	Active	Active	–	62	Active	66	> 500	12.4	66%	–	–	–	–	–	–	–	–
CCCCCC(C)C(C)c1cc(O)c2c(c1)OC(C)(C)C1=C2CCC1 (stereo not given)	25.3	Active	Active	–	59	–	33	> 500	45.1	1%	65	Active	–	–	–	–	–	–
CCCCCC(C)C(C)c1cc(O)c2c(c1)OC(C)(C)C1=C2C(C)CS1 (stereo not given)	4.7	–	Active	–	–	Active	33	> 500	1.4	33%	–	–	21	Active	50	–	–	–
CCCCCC(C)C(C)c1cc(O)c2c(c1)OC(C)(C)C1=C2CC(C)S1 (stereo not given)	34	Active	Active	–	–	–	33	> 500	–	1%	–	–	–	–	–	–	–	–
CCCCCC(C)C(C)c1cc(O)c2c(c1)OC(C)(C)C1=C2CC(C)(C)S1 (stereo not given)	> 40	Active	Active	–	–	–	1	> 500	–	1%	–	–	–	–	–	–	–	–
CCCCCC(C)C(C)c1cc(O)c2c(c1)OC(C)(C)C1=C2CC(C)(C)C1 (stereo not given)	> 40	Active	Active	–	–	–	33	> 500	–	inactive	–	–	–	–	–	> 40	–	–
CCCCCC(C)C(C)c1cc(O)c2c(c1)OC(C)(C)C1=C2CCS1 (stereo not given)	–	Active	Active	–	–	–	33	> 500	–	33%	31	–	–	–	–	–	30	Active
CCCCCC(C)C(C)c1cc(O)c2c(c1)OC(C)(C)C1=C2C(C)CC1 (stereo not given)	13.3	Active	Active	–	58	Active	66	> 500	–	66%	–	–	–	–	–	–	–	–
CCCCCC(C)C(C)c1cc(O)c2c(c1)OC(C)(C)C1=C2CC(C)C1 (stereo not given)	22.6	Active	Active	–	–	Active	1	> 500	–	inactive	–	–	–	–	–	–	–	–
